“Also recorded” adds a separate entry of the source. Like-named read-outs stand apart in the source and are kept apart here.
Key:
[1] = Metabolic stability in mouse liver microsomes; format: in vitro ADME; conditions: for half-life at 2 μM: 0.5 mg protein/ml, 2.0 uM compound, 1.0 mM NADPH, read-out: MLM t1/2
Experimental: (§1) The samples were collected at specific time points, 0, 30, and 60 min, in duplicate. The reactions were terminated by adding an equivalent volume of ice-cold methanol and vortexed. […] Three microliters […] of the supernatant was analyzed by UHPLC-Q Exactive Orbitrap MS (Thermo Fisher Scientific) equipped with 50-mm × 4.6-mm column (XDB C-18; Agilent Technologies). The column temperature was maintained at 40 °C. The flow rate was at 0.3 mL/min with a 30% mobile phase (acetonitrile containing 0.1% formic acid). Q Exactive MS was operated in positive mode with electrospray ionization. Ultrapure nitrogen was applied as the sheath (45 arbitrary units), auxiliary (10 arbitrary units), sweep (1.0 arbitrary unit), and the collision gas. […] Mass Spectrometry (MS) data were acquired from 80 to 1,200 Da in profile mode.

[2] = Metabolic stability in human liver microsomes; format: in vitro ADME; conditions: for half-life at 2 μM: 0.5 mg protein/ml, 2.0 uM compound, 1.0 mM NADPH, read-out: HLM t1/2
Experimental: as §1

[3] = Plasma stability assay, mouse plasma; format: in vitro ADME; conditions: 10 µM, 37 °C, after 2-h incubation
Experimental: (§2) Compound CDD-1713 and CDD-1976 were incubated in human and mouse plasma, respectively, at a concentration of 10 µM in duplicate (n = 2) at 37 °C. At time points of 0, 30, 60, and 120 min, 15 µL of sample were taken out and the reactions terminated by adding 75 µL of ice-cold methanol. The reaction mixtures were then vortexed for 30 s and centrifuged at rcf 15,000 for 15 min. Following centrifugation, 3 μL of the supernatant was analyzed using UHPLC-Q Exactive Orbitrap MS. The percentage of test compound remaining at the individual time points relative to the 0-min sample was then determined.

renin = molecular target: T1, renin (Homo sapiens, UniProt P00797); assay: Renin assay; format: biochemical; conditions: best off-target inhibition observed; read-out: estimated Kiapp, renin
T1 construct: purchased BPS Bioscience 80211
T1 sequence (P00797 67-406): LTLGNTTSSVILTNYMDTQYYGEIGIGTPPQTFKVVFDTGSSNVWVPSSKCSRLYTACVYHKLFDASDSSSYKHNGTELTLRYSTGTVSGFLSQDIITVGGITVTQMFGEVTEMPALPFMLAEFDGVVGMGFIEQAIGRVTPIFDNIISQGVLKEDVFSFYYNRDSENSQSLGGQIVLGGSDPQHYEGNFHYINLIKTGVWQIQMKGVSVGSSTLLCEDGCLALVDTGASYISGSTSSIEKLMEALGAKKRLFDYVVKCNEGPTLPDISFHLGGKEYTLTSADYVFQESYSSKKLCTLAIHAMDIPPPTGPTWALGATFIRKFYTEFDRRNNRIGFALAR
Experimental: Renin assay: A kit from BPS Bioscience (80211) was used with adjustments to the manufacturer’s protocol as follows. The reaction was run at RT in black 96 half-area plates in a total reaction volume of 50 μL containing 0.01% Tween-20. Instead of measuring endpoints at 30 min the increase in fluorescence (Ex 490 nm, Em 520 nm) per second (RFU/s) was obtained from linear progress curves over 10 min. Fractional activities were calculated from reactions with no inhibitors. Aliskiren was used as a positive control.

SARS-CoV-2 M^pro-His6 = SARS-CoV-2 M^pro-His6 (Severe acute respiratory syndrome coronavirus 2, UniProt P0DTD1); assay: M^pro-His6 enzyme inhibition assay, fluorescent peptide reporter; format: biochemical; conditions: for M^pro inhibitory activity (in words): analogs compared with CDD-1713
[4] = test system: SARS-CoV-2 main protease (M^pro); assay: Protein thermal shift stability assay (thermofluor); format: binding; conditions: 1.5 μM protease, various compound concentrations, SYPRO Orange
Experimental: The dye SYPRO Orange (Thermo Fisher Scientific) was used to perform the protein thermal shift assay. The assay was set up on a 384-well Roche plate where the SARS-CoV-2 main protease at a concentration of 1.5 μM was incubated with the test compound at various concentrations and SYPRO Orange dye at 5× in a 10 μL reaction. The melting curve experiment and data analysis were run on a Roche Lightcycler 480 real-time PCR instrument.

HepG2 cells [5] = assay: HepG2 cell uptake assay; format: in vitro ADME; conditions: 10 μM, 2 h, 37 °C
Experimental: (§3) The HepG2 cells maintained in DMEM (containing 1 g/L glucose, 10% fetal bovine serum [FBS], and 1% penicillin/streptomycin) were seeded in a 12-well plate (a final density of 5 × 10^5 per well) for cell uptake assay and 96-well plate for cytotoxicity assay (a final density of 5 × 10^4 per well). The plate was incubated at 37 °C for 24 h.
The cells in 12-well plate were treated with CDD-1713 or CDD-1976 (final concentration: 10 μM). The plate was incubated at 37 °C for another 2 h. The medium in the plate was decanted and the cells were rinsed with 1 mL of 1× DPBS three times, then 0.5 mL of 0.25% trypsin was added to each well and incubated for 3.5 min (at 37 °C). One milliliter of complete medium was added to each well to quench the reaction. After spinning at 350 × g for 5 min, the cell pellet was reconstituted in MeOH/H2O (vol/vol 1/1) and CDD-1713 or CDD-1976 was extracted from 100 μL of the resulting mixture with 100 μL of ice-cold methanol. The mixtures were centrifuged at rcf 15,000 for 15 min. Three microliters of the supernatant was analyzed by UHPLC-Q Exactive Orbitrap MS (Thermo Fisher Scientific) equipped with a 50-mm × 4.6-mm column (XDB C-18; Agilent Technologies). The column temperature was set at 40 °C. Ultrapure nitrogen was applied as the sheath (45 arbitrary units), auxiliary (10 arbitrary units), sweep (1.0 arbitrary unit), and the collision gas. […]

[6] = Plasma stability assay, human plasma; format: in vitro ADME; conditions: 10 µM, 37 °C, after 2-h incubation
Experimental: as §2

HepG2 cells [7] = assay: HepG2 cytotoxicity assay (XTT); format: cell-based; conditions: 24 h; for cytotoxicity in HepG2 cells (in words): 100 μM
Experimental: as §3
(§4) The cells in 96-well plate were treated by CDD-1713 or CDD-1976 at the final concentrations of 0, 10, 20, 50, or 100 μM (n = 3 replicates per concentration level per drug). After 24-h incubation at 37 °C, the medium in the plate was decanted and 100 μL of Dulbecco’s modified Eagle’s medium (DMEM) (without phenol red) was added into each well. The cell variability was measured using XTT method. The absorbance at 475 nm was read with a Tecan M1000 pro machine, with a reference wavelength of 660 nm. The reading was normalized by vehicle with final 0.5% dimethyl sulfoxide (DMSO) for each drug.

[8] = HepG2 cytotoxicity assay (XTT); format: cell-based; conditions: human, 100 µM group, XTT, normalized to DMSO, read-out: HepG2 cell viability
Experimental: as §3, §4

[9] = test system: SARS-CoV-2 (USA_WA1/2020 isolate); assay: RTCA assay for in vitro inhibition of SARS-CoV-2 replication in VERO E6 cells; format: cell-based; conditions: live SARS-CoV-2, 75 h; for IC50, SARS-CoV-2 induced cell death (normalized cell index, RTCA): duplicates
SARS-CoV-2 M^pro = SARS-CoV-2 M^pro (Severe acute respiratory syndrome coronavirus 2, UniProt P0DTD1); assay: M^pro (His tag removed) enzyme inhibition assay, fluorescent peptide reporter; format: biochemical; conditions: Table S1, 25 nM enzyme, 15 µM fluorescent peptide, Morrison equation, SE from triplicates
[10] = read-out: Ki against M^pro (Fig. 2; Fig. 2B M^pro-His-tag), 25 nM enzyme, 15 µM fluorescent peptide, Morrison equation, inactive = less than 90% inhibition at 25 µM
[11] = read-out: Mpro-His Ki, Table S1, 25 nM enzyme, 15 µM fluorescent peptide, Morrison equation, SE from triplicates
[12] = Table S1, 25 nM enzyme, 15 µM fluorescent peptide, Morrison equation, SE from triplicates

## Cc1nnc2n1-c1ccc(Cl)cc1C(c1ccccc1)=NC2 [Alprazolam, reference compound]
[1]
  half-life at 2 μM: 296 min
[2]
  half-life at 2 μM: 832 min

## COc1cc(-c2cccc3[nH]ncc23)cc(C=O)c1OCC(=O)N(C)C [CDD-1713]
[1]
  metabolic stability in mouse liver microsomes (in words): metabolically labile
  half-life at 2 μM: 8.4 min
[3]
  compound remained in mouse plasma: 80%
renin
  Ki: 53000 nM
SARS-CoV-2 M^pro-His6; 25 nM enzyme, 15 µM fluorescent peptide, Morrison equation, inactive = less than 90% inhibition at 25 µM, read-out: Ki against M^pro (Fig. 2; Fig. 2B M^pro-His-tag)
  Ki: 45 ± 3 nM
SARS-CoV-2 M^pro-His6; Table S1, 25 nM enzyme, 15 µM fluorescent peptide, Morrison equation, SE from triplicates, read-out: Mpro-His Ki
  Ki: 45 ± 3 nM
SARS-CoV-2 M^pro-His6; read-out: Ki against M^pro (Fig. 2; Fig. 2B M^pro-His-tag)
  Ki: 45 nM
[2]
  metabolic stability in human liver microsomes (in words): metabolically labile
  half-life at 2 μM: 15.3 min
[4]
  stabilization of M^pro (temperature shift): stabilized; also recorded: concentration-dependent stabilization
HepG2 cells [5]
  cell permeability in uptake assay of HepG2 cells: moderate cell permeability
[6]
  compound remained in human plasma: 80%
HepG2 cells [7]
  cytotoxicity in HepG2 cells (in words): no obvious cytotoxicity
[8]
  viability at 24 h, 100 µM: > 80%
[9]
  effect on SARS-CoV-2 induced cell death (in words): reduced cell death in a dose-dependent manner
  IC50, SARS-CoV-2 induced cell death (normalized cell index, RTCA): 5190 nM

## COc1cc(-c2cccc3[nH]ncc23)cc(C=O)c1OCC(=O)N1CCC(Oc2cccc(C(=O)N(C)C)c2)C1 (stereo not shown) [CDD-1714]
SARS-CoV-2 M^pro-His6
  Ki: 20 nM
SARS-CoV-2 M^pro-His6; [10]
  Ki: 20 ± 3 nM
SARS-CoV-2 M^pro-His6; [11]
  Ki: 20 ± 3 nM
[4]
  stabilization of M^pro (temperature shift): stabilized; also recorded: concentration-dependent stabilization
SARS-CoV-2 M^pro; read-out: Mpro Ki
  Ki: 24 ± 3 nM

## COc1cc(-c2cccc3[nH]ncc23)cc(CO)c1OCC(=O)N(C)C [CDD-1776]
SARS-CoV-2 M^pro-His6; [12]
  Mpro-His Ki: Inactive
SARS-CoV-2 M^pro-His6
  M^pro inhibitory activity (in words): completely abolished the activity
SARS-CoV-2 M^pro
  Mpro Ki: Inactive

## COc1cc(-c2cccc3[nH]ncc23)ccc1OCC(=O)N(C)C [CDD-1793]
SARS-CoV-2 M^pro-His6; [12]
  Mpro-His Ki: Inactive
SARS-CoV-2 M^pro-His6
  M^pro inhibitory activity (in words): completely abolished the activity
SARS-CoV-2 M^pro
  Mpro Ki: Inactive

## COc1cc(-c2cccc3c2cnn3C)cc(C=O)c1OCC(=O)N(C)C [CDD-1847]
SARS-CoV-2 M^pro-His6; [12]
  Mpro-His Ki: Inactive
SARS-CoV-2 M^pro-His6
  M^pro inhibitory activity (in words): completely lost activity
SARS-CoV-2 M^pro
  Mpro Ki: Inactive
[9]
  effect on SARS-CoV-2 induced cell death (in words): unable to prevent cell death
  IC50, SARS-CoV-2 induced cell death (normalized cell index, RTCA): inactive

## COc1cc(-c2cccc3[nH]ncc23)cc(C(C)=O)c1OCC(=O)N(C)C [CDD-1883]
SARS-CoV-2 M^pro-His6; [12]
  Mpro-His Ki: Inactive
SARS-CoV-2 M^pro
  Mpro Ki: Inactive

## COc1cc(-c2cccc3[nH]ncc23)cc(C(=O)CO)c1OCC(=O)N(C)C [CDD-1886]
SARS-CoV-2 M^pro-His6; [12]
  Mpro-His Ki: Inactive
SARS-CoV-2 M^pro
  Mpro Ki: Inactive

## CCOC(=O)/C=C/c1cc(-c2cccc3[nH]ncc23)cc(OC)c1OCC(=O)N(C)C [CDD-1971]
SARS-CoV-2 M^pro-His6; [12]
  Mpro-His Ki: Inactive
SARS-CoV-2 M^pro
  Mpro Ki: Inactive

## CN(C)C(=O)COc1ccc(-c2cccc3[nH]ncc23)cc1C=O [CDD-1976]
[1]
  metabolic stability in mouse liver microsomes (in words): more stable in human liver microsomes, but not mouse
  half-life at 2 μM: 10.2 min
[3]
  compound remained in mouse plasma: 80%
SARS-CoV-2 M^pro-His6
  Ki: 37 nM
  M^pro inhibitory activity (in words): better inhibition compared to CDD-1713
SARS-CoV-2 M^pro-His6; [10]
  Ki: 37 ± 4 nM
SARS-CoV-2 M^pro-His6; [11]
  Ki: 37 ± 4 nM
[2]
  metabolic stability in human liver microsomes (in words): more stable
  half-life at 2 μM: 41.4 min
[4]
  stabilization of M^pro (temperature shift): stabilized; also recorded: concentration-dependent stabilization; also recorded: most pronounced temperature shift
HepG2 cells [5]
  cell permeability in uptake assay of HepG2 cells: moderate cell permeability
[6]
  compound remained in human plasma: 80%
HepG2 cells [7]
  cytotoxicity in HepG2 cells (in words): no obvious cytotoxicity
HepG2 cells [7]; Homo sapiens, HepG2, XTT assay, read-out: IC50, HepG2 cell viability
  IC50: > 100000 nM
[8]; HepG2 cells
  viability at 24 h, 100 µM: > 80%
[9]
  effect on SARS-CoV-2 induced cell death (in words): reduced cell death in a dose-dependent manner

## CN(C)C(=O)COc1ccc(-c2cccc3[nH]ncc23)cc1C#N [CDD-2038]
SARS-CoV-2 M^pro-His6; [12]
  Mpro-His Ki: Inactive
SARS-CoV-2 M^pro
  Mpro Ki: Inactive
